# Test results reported in ChEMBL document CHEMBL1201862, “PubChem BioAssay data set” (2004).
# The source made the active and inactive calls.
# Assays:
# [1] = Luminescence Cell-Based Dose Retest to Confirm Inhibitors of Cancer Stem Cells. [Related pubchem assays (depositor defined):AID2717, AID2721]; type: functional; settings: Homo sapiens
# [2] = test system: INS1; test: beta cell apoptosis inhibitors, cytokine rescue, dose response, luminescence, retest (AID 449756); type: functional, cell-based; settings: Rattus norvegicus;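 note: cell death triggered by IL-1 beta plus TNF-alpha plus IFN-gamma mixture; protective hits raise ATP signal compared with cytokine alone wells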
# [3] = target: Melanocortin receptor 4 (Homo sapiens, UniProt P32245); test: MC4R antagonist potency on cAMP, dose response, cell-based, TR-FRET, biased antagonists (AID 602298); type: functional;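 note: antagonist potency against agonist-stimulated cAMP production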
# Chain of Melanocortin receptor 4 (P32245 whole entry): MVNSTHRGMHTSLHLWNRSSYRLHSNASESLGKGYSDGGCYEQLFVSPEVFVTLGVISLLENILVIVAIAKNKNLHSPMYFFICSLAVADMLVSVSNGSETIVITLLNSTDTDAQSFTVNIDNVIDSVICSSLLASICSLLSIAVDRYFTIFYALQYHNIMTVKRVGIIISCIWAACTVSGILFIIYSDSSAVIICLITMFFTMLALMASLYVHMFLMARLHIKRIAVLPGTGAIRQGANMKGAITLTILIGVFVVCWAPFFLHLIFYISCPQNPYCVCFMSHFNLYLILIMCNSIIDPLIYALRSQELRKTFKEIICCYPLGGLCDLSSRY
# [4] = nonselective inhibitors of cellular cAMP signaling, dose response, counter-screen for MC4R biased antagonist project, cell-based, TR-FRET cAMP detection (AID 602305); type: functional;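 note: U2OS cells stimulated with forskolin near its EC80 as the cAMP inducer; potency is for inhibition of forskolin-stimulated cAMP signaling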
# [5] = target: Paired box protein Pax-8 (Homo sapiens, UniProt Q06710); test: inhibitors of PAX8-driven TPO luciferase reporter, dose response, RMG-I cells, cherry-pick (AID 687027); type: functional, cell-based;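 note: luciferase reporter driven by Pax8 target thyroperoxidase promoter measured by SteadyGlo luminescence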
# Chain of Paired box protein Pax-8 (Q06710 whole entry): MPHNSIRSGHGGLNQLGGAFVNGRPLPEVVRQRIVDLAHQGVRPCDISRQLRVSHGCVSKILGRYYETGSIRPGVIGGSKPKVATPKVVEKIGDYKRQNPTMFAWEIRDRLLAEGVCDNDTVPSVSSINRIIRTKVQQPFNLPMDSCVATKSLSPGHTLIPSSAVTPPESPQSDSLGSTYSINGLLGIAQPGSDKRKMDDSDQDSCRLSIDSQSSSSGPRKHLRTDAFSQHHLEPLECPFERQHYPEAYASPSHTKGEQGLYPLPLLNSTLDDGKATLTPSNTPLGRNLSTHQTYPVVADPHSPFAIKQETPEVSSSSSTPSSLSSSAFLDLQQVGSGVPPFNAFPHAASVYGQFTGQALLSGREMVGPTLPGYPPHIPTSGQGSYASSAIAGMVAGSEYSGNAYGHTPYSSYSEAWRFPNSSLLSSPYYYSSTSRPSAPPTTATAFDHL
# [6] = non-specific cell cytotoxicity, dose response, cytotoxicity control for PAX8 inhibitor project, plate reader, dry powder samples (AID 743021); type: functional, cell-based
# [7] = target: Nuclear receptor subfamily 5 group A member 2 (Homo sapiens, UniProt O00482); type: functional, cell-based;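 note: HEK293T cells transfected with LRH-1 and a StAR promoter luciferase reporter; potency for inhibitors that lower LRH-1 driven reporter light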
# Chain of Nuclear receptor subfamily 5 group A member 2 (O00482 whole entry): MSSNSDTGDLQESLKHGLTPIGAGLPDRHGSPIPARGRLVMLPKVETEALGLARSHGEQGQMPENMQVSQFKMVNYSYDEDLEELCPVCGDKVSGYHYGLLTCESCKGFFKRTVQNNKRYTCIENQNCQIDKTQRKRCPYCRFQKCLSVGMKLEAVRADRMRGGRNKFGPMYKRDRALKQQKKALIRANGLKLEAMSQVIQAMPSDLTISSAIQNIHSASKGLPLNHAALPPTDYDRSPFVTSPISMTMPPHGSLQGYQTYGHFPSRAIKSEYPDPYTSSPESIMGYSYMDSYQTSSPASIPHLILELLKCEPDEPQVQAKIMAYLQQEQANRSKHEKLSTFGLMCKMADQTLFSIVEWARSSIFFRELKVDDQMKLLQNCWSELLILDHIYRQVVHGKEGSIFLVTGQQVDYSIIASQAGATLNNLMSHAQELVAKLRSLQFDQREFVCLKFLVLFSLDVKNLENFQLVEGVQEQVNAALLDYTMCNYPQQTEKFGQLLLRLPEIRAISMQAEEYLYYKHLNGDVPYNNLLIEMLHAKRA
# [8] = target: Steroidogenic factor 1 (Homo sapiens, UniProt Q13285); test: Counterscreen for inverse agonists of the liver receptor homolog-1 (LRH-1; NR5A2): Luminescence-based cell-based high throughput dose response assay to identify inverse agonists of the Steroidogenic Factor 1 Nuclear Receptor (SF1; NR5A1).; type: functional
# Chain of Steroidogenic factor 1 (Q13285 whole entry): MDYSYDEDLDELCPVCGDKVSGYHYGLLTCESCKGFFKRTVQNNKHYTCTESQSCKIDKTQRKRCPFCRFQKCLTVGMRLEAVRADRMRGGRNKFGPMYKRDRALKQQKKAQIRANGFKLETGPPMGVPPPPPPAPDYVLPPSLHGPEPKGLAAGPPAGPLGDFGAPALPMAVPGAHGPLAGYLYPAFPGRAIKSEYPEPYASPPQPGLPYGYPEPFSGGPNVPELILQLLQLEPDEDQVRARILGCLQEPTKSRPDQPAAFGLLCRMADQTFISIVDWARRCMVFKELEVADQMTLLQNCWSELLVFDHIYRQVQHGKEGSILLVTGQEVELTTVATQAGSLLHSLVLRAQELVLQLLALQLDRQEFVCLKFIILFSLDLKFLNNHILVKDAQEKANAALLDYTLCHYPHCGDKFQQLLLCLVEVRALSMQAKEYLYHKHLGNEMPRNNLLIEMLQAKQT
# [9] = StAR promoter reporter inhibition counter-screen, dose response, counter-screen for LRH-1 inverse agonist project, cell-based, luminescence, luciferase reporter (AID 651969); type: functional
# [10] = target: Arf-GAP with SH3 domain, ANK repeat and PH domain-containing protein 1 (Homo sapiens, UniProt Q9ULH1); type: functional;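 note: biochemical fluorescence polarization dose–response screen measuring inhibition of ASAP1; ASAP1 GAP domain stimulating GTP hydrolysis by truncated human ARF1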
# Chain of Arf-GAP with SH3 domain, ANK repeat and PH domain-containing protein 1 (Q9ULH1 whole entry, the tested form may be a part): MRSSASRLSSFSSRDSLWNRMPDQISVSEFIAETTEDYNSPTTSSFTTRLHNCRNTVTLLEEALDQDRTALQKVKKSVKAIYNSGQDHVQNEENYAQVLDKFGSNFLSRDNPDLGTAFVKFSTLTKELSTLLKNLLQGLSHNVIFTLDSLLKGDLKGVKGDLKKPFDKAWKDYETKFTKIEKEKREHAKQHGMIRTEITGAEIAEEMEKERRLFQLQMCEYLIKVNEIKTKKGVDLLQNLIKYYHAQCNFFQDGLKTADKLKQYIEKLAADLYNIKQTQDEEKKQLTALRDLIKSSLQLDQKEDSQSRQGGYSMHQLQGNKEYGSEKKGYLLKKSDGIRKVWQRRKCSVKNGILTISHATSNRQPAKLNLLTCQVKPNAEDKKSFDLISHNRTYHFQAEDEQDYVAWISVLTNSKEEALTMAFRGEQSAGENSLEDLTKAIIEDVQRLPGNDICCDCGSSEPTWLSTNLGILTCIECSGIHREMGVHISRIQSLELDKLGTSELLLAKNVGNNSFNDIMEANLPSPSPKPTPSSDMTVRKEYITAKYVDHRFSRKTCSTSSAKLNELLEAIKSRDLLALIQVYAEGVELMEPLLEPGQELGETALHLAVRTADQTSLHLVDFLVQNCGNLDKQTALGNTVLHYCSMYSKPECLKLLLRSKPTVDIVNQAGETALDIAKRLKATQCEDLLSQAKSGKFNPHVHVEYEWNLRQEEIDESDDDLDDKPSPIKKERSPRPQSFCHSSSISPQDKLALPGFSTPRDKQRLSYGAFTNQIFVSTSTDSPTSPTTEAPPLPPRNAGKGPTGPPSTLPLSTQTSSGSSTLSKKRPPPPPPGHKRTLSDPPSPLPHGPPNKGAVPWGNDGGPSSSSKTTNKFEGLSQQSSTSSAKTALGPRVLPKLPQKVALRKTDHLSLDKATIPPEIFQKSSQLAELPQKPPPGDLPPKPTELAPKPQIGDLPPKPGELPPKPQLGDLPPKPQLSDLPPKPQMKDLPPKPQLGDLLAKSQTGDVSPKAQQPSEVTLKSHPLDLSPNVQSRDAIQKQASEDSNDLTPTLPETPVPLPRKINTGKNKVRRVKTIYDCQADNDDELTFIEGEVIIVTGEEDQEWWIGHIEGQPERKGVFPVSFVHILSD
# [11] = target: T1, Corticotropin-releasing factor receptor 2/Corticotropin-releasing factor-binding protein (Homo sapiens, UniProt P24387+Q13324); test: Dose Response confirmation of uHTS hits for small molecule antagonists of the CRF-binding protein and CRF-R2 receptor complex.; type: functional; settings: read-out: IC50_Mean
# T1 sequence (Q13324 whole entry): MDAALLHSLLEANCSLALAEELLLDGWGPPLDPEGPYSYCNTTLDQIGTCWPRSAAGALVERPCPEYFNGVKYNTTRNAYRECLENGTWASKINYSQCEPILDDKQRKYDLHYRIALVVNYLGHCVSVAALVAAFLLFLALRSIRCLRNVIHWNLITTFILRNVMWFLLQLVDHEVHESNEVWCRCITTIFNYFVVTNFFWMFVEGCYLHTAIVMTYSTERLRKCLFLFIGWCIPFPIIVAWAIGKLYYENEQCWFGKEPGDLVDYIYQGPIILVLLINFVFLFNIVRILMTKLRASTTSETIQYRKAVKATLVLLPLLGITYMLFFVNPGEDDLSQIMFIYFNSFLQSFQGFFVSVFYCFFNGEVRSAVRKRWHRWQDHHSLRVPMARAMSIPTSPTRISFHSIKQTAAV
# T1 sequence (P24387 whole entry): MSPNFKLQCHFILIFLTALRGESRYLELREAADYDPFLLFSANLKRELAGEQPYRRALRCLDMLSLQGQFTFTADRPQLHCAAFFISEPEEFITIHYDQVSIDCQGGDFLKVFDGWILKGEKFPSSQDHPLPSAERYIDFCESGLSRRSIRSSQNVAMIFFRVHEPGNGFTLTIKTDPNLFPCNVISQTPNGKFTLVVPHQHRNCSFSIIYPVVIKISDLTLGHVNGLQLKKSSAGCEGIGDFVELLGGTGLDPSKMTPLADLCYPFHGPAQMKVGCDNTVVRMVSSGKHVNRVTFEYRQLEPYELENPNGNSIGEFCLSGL
# [12] = target: Tyrosine-protein phosphatase non-receptor type 11 (Homo sapiens, UniProt Q06124); test: SHP2 phosphatase inhibition, dose response, selectivity assay for STEP inhibitor project, biochemical (AID 602367); type: functional; settings: read-out: IC50_Mean
# Chain of Tyrosine-protein phosphatase non-receptor type 11 (Q06124 whole entry): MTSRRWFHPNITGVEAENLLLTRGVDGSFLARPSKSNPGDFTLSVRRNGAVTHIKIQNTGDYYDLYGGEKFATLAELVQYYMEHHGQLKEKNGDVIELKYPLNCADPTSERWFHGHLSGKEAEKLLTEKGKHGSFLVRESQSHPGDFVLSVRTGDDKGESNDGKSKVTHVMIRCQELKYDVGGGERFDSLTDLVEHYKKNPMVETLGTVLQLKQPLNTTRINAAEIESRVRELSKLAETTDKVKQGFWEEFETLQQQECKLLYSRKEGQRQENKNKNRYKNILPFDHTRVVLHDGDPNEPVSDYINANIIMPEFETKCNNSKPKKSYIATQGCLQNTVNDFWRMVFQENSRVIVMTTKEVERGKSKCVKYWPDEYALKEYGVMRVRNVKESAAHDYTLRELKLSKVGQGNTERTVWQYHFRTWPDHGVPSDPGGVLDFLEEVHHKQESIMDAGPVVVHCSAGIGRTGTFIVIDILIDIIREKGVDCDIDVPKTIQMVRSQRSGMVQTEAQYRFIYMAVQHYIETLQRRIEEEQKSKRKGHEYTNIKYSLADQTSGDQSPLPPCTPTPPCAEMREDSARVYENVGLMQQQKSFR
# [13] = target: Tyrosine-protein phosphatase non-receptor type 5 (Homo sapiens, UniProt P54829); test: STEP phosphatase inhibitors, confirmation, biochemical, fluorescence intensity, uHTS hits (AID 602372); type: functional; settings: read-out: IC50_Mean
# Chain of Tyrosine-protein phosphatase non-receptor type 5 (P54829 whole entry): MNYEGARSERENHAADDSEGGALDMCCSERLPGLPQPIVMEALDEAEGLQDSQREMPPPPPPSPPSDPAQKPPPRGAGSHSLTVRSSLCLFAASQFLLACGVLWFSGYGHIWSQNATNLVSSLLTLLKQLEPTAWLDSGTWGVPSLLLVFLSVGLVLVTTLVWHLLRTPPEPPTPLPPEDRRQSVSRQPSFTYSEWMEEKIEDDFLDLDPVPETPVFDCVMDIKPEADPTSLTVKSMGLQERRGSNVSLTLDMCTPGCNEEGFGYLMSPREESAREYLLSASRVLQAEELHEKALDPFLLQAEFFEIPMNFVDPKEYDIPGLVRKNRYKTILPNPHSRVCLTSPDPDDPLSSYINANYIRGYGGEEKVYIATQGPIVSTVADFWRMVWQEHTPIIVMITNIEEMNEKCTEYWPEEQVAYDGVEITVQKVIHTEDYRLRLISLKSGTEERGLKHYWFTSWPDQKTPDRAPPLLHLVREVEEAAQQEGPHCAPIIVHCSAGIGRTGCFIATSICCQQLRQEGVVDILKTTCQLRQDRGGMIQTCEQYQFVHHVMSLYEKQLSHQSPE
# [14] = target: T1, Corticotropin-releasing factor receptor 2/Corticotropin-releasing factor-binding protein; test: activators of CRF receptor 2 with binding protein – uHTS hits, confirmation (AID 602473); type: functional; settings: read-out: EC50_Mean
# [15] = target: Dual specificity protein phosphatase 3 (Homo sapiens, UniProt P51452); test: VHR phosphatase inhibition, dose response, selectivity assay for STEP inhibitor project, biochemical (AID 602374); type: functional; settings: read-out: IC50_Mean
# Chain of Dual specificity protein phosphatase 3 (P51452 whole entry): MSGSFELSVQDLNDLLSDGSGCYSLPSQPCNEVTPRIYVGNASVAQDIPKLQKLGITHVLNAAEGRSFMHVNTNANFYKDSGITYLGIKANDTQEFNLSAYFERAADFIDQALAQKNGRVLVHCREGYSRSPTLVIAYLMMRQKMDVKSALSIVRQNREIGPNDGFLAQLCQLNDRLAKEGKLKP
# [16] = target: T2, Low molecular weight phosphotyrosine protein phosphatase (Homo sapiens, UniProt P24666); type: functional; settings: read-out: IC50_Mean
# T2 sequence (P24666 whole entry): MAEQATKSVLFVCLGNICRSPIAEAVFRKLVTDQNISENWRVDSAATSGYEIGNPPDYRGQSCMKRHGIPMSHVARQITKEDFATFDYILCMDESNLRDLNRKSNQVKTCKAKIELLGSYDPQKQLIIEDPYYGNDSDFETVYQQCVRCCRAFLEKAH
# [17] = target: T2, Low molecular weight phosphotyrosine protein phosphatase; type: functional; settings: read-out: IC50_Mean; remark: listed apart in the source
# [18] = target: T3, Carboxy-terminal domain RNA polymerase II polypeptide A small phosphatase 1 (Homo sapiens, UniProt Q9GZU7); test: inhibitors of CTDSP1, concentration-response testing, biochemical assay, absorbance-based, actives from ultra-high-throughput screening (AID 540297); type: functional
# T3 sequence (Q9GZU7 whole entry): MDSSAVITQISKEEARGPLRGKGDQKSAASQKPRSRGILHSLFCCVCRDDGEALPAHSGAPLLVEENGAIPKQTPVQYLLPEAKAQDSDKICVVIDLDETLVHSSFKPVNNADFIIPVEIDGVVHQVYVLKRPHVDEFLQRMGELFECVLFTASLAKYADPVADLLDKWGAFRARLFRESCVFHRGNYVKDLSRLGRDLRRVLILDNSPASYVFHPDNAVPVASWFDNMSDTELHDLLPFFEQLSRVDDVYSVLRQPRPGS
# [19] = target: T4, Small ubiquitin-related modifier 1 (Homo sapiens, UniProt P63165); test: inhibitors of SUMO1 peptide binding, dose response, biochemical, fluorescence polarization, uHTS hits (AID 624382); type: functional; settings: read-out: IC50_Mean
# T4 sequence (P63165 whole entry): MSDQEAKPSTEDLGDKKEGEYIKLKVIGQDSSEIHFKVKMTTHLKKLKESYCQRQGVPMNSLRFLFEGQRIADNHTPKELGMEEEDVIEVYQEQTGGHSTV
# [20] = target: T4, Small ubiquitin-related modifier 1; test: inhibitors of SUMO1 partner interactions, dose response, biochemical, FRET (AID 624383); type: functional; settings: read-out: IC50_Mean
# [21] = target: Adenosylmethionine-8-amino-7-oxononanoate aminotransferase (Mycobacterium tuberculosis, UniProt P9WQ81); test: Mycobacterium tuberculosis BioA enzyme inhibitor Measured in Biochemical System Using Plate Reader - 2163-02_Inhibitor_Dose_CherryPick_Activity.; type: functional, Mycobacterium tuberculosis UT205
# Chain of Adenosylmethionine-8-amino-7-oxononanoate aminotransferase (P9WQ81 whole entry): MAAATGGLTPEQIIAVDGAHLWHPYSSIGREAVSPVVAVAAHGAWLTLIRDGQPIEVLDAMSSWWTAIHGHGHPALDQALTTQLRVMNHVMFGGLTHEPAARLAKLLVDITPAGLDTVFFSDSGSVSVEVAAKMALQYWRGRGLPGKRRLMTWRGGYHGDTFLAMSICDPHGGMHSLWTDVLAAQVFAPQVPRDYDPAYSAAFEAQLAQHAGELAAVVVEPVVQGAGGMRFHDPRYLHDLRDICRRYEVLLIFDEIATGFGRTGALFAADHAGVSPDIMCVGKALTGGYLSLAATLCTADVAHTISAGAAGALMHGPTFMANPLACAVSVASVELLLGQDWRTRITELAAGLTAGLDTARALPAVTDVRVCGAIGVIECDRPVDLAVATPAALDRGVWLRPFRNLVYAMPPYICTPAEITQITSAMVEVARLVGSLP
# [22] = test system: BJ; test: cytotoxicity toward BJ-TERT fibroblasts, dose response, cell-based, RAS-independent, luminescence (AID 1933); type: functional; settings: Homo sapiens
# [23] = test system: BJ; test: cells; type: functional, cell-based; settings: Homo sapiens
# [24] = test system: BJ; test: cytotoxicity toward BJ-TERT-LT-ST fibroblasts, dose response, cell-based, RAS-independent, luminescence (AID 1935); type: functional; settings: Homo sapiens;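 note: BJ fibroblasts immortalized with TERT plus LT and ST oncogenes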
# [25] = cytotoxicity toward DRD oncogenic fibroblasts, dose response, cell-based, non-viral oncogenic, luminescence (AID 1934); type: functional; settings: Homo sapiens
# [26] = target: T5, Replicative DNA helicase DnaB (Mycobacterium tuberculosis, UniProt P9WMR3); test: DnaB intein splicing inhibitors, dose response, biochemical, cell-free fluorescence (AID 449749); type: functional
# T5 sequence (P9WMR3 whole entry): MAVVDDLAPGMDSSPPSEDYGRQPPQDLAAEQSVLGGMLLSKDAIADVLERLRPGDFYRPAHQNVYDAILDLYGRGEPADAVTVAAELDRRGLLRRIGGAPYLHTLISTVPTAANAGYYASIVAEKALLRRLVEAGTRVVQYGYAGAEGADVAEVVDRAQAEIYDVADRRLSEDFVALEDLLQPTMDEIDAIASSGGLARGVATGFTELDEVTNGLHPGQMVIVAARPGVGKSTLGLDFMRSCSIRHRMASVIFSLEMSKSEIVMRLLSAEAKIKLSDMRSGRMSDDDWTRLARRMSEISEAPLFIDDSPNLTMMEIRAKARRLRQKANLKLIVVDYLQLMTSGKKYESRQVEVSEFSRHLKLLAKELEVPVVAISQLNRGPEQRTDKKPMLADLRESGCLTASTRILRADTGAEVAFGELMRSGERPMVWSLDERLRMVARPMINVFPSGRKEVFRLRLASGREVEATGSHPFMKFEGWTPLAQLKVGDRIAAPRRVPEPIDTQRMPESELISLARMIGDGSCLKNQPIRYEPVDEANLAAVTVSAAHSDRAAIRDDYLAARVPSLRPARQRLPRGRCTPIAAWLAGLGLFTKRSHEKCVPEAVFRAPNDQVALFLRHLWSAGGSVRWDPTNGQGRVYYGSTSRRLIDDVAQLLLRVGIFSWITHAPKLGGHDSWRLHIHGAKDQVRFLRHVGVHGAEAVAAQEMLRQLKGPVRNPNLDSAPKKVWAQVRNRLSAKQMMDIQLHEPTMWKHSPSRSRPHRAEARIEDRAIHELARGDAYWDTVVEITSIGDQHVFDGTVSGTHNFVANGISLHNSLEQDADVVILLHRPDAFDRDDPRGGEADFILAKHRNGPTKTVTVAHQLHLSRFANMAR
# [27] = target: Heat shock protein HSP 90-alpha (Homo sapiens, UniProt P07900); type: functional, organism-based
# [28] = test system: BJ; test: cytotoxicity toward Ras-transformed BJeLR fibroblasts, dose response, cell-based, alamar blue fluorescence, cherrypicked samples (AID 2631); type: functional; settings: Homo sapiens;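 note: confirmatory dose-response assay in RAS-dependent BJ fibroblasts engineered with TERT, LT and ST, with cytotoxicity read by fluorescence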
# [29] = target: T6, Protein RecA (Mycobacterium tuberculosis, UniProt P9WHJ3); test: Fluorescence Cell-Free Homogeneous Dose Retest to Identify Inhibitors of RecA-Intein Splicing Activity. [Related pubchem assays (depositor defined):AID2097, AID2223, AID489010, AID492950]; type: functional
# T6 sequence (P9WHJ3 whole entry): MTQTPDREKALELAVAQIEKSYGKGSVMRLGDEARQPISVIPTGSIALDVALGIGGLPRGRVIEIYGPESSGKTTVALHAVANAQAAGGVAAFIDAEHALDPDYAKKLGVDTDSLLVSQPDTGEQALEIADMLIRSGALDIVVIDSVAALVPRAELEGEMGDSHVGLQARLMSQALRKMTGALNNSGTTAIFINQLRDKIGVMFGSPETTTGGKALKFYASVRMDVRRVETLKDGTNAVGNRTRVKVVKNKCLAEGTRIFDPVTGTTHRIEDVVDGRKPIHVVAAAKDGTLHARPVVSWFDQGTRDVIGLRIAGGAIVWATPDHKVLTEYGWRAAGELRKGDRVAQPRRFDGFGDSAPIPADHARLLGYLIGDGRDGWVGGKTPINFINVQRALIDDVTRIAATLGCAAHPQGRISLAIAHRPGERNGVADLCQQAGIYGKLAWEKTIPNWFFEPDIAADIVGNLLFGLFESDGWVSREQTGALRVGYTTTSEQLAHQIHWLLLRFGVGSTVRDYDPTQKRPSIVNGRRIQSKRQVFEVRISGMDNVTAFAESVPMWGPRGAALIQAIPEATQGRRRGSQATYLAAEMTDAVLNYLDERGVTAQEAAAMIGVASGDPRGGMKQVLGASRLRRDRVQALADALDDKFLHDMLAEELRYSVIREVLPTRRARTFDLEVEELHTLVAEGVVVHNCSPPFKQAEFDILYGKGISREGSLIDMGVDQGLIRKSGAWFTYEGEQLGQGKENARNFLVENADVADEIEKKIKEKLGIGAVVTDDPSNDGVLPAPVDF
# [30] = Fluorescence-based cell-based high throughput dose response assay for inhibitors of the interaction of nucleotide-binding oligomerization domain containing 2 (NOD2) and the receptor-interacting serine-threonine kinase 2 (RIPK2).; type: functional; settings: Homo sapiens
structure (smiles),measurement,setting,value
C=C1CCc2c([nH]c3ccc(OCC(C)C)cc23)C1=O,AC50,[1],2.08 µM (active)
same,AC50,[2],3.69 µM (active)
same,IC50,[3],6.05 µM (active)
same,IC50,[4],> 64.6 µM (inactive)
same,AC50,[5],6.14 µM (active)
same,AC50,[6],35.6 µM (active)
O=C(CCl)NCCCN(C(=O)C(Cl)Cl)c1ccc([N+](=O)[O-])cc1,IC50,[7],7.45 µM (active)
same,IC50,[8],4.97 µM (active)
same,IC50,[9],18.8 µM (inactive)
COc1ccc(C(=O)Nc2nc3cc4c(cc3s2)OCO4)c(OC)c1,IC50,[10],50.8 µM (inactive)
O=[N+]([O-])c1ccc(O)c(Nc2ncnc3ccccc23)c1,IC50,[11],> 47.1 µM (inactive)
same,IC50,[12],1.98 µM (active)
same,IC50,[13],13.3 µM (active)
same,EC50,[14],> 53 µM (inactive)
same,IC50,[15],1.77 µM (active)
same,IC50,[16],16.1 µM (active)
same,IC50,[17],7.06 µM (active)
Cc1ccc2cccc(OCC(=O)NCCC3=CCCCC3)c2n1,IC50,[7],4.06 µM (active)
same,IC50,[8],2.83 µM (active)
same,IC50,[9],35.8 µM (inactive)
COCCNc1nc(NCc2cc(-c3ccc(OC)cc3)no2)c2sccc2n1,IC50,[16],9.53 µM (active)
same,IC50,[17],23.3 µM (inactive)
O=C(N/N=C/c1ccc(Cl)c([N+](=O)[O-])c1)c1ccc2c(c1)OCCO2,IC50,[18],4.44 µM (active)
same,IC50,[12],1.93 µM (active)
same,IC50,[13],7.3 µM (active)
same,IC50,[15],2.29 µM (active)
same,IC50,[19],> 66.6 µM (inactive)
same,IC50,[20],9.57 µM (active)
same,IC50,[10],10.9 µM (inactive)
O=C(Nc1ccc2c(c1)[C@H]1C[C@@H](CC(=O)N3CCc4ccccc4C3)O[C@@H](CO)[C@H]1O2)c1cccnc1,AC50,[21],10.5 µM (active)
COCCNC(=O)C[C@H]1CC[C@@H]2[C@@H](COc3ccc(NC(=O)Nc4cccc(F)c4)cc3C(=O)N2C)O1,AC50,[21],5.19 µM (active)
O=[N+]([O-])c1cc(Br)c(Nc2ccccc2)c([N+](=O)[O-])c1,EC50,[22],5.53 µM (inconclusive)
same,EC50,[23],2.57 µM (inconclusive)
same,EC50,[24],28.3 µM (inconclusive)
same,EC50,[25],4.5 µM (active)
same,AC50,[26],5.68 µM (active)
same,AC50,[27],7.5 µM (active)
same,EC50,[28],1.37 µM (active)
same,EC50,[29],5.15 µM (active)
same,IC50,[30],2.12 µM (active)
